For one assay, the target named is cIAP2-BIR3 (Homo sapiens (Human), UniProt Q13489). As to the kind of experiment: BIR binding assay (FRET competition), cIAP2 BIR3. The note with it: for cIAP2 BIR3 vs BIR2 separation window: fold separation (FS) for cIAP2.
The next assay has as its target cIAP1-BIR3 (Homo sapiens (Human), UniProt Q13490). The assay is described as follows: BIR binding assay (FRET competition), cIAP1 BIR3. The note with it: for cIAP1 BIR3 vs BIR2 separation window: fold separation (FS) for cIAP1. In outline:
(§1)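 Compounds tested as 15-point, 3-fold series displacing 200 nM AlexaFluor647-labelled SMAC peptide from His-tagged BIR domain (cIAP1-BIR3 50 nM; cIAP1-BIR2 and cIAP2-BIR2 325 nM; XIAP-BIR3 100 nM), pH 7.4, 60 min. Eu-W1024 (2 nM) added 30 min; emission ratio fitted for IC50.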

Assay [1] relates to Jurkat HIV-luciferase clones. As to the kind of experiment: Jurkat latency reversal assay. The format is cell-based. The note with it: Homo sapiens, 48 h; Jurkat latency reversal assay potency; read-out: Jurkat pEC50 (converted). The method in brief:
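A 1:1:1 mix of three Jurkat clones (C16, 115, N6) carrying integrated luciferase-expressing HIV proviruses, 5,000 cells/well, was exposed to 3-fold, 14-point compound titrations from 10 μM at 0.5% DMSO for 48 h at 37° C. Steady-Glo luminescence was fitted by four-parameter logistic regression to give EC50 and maximal percent activation relative to vehicle.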

The target of a further assay is cIAP2-BIR2 (Homo sapiens (Human), UniProt Q13489). The assay is described as follows: BIR binding assay (FRET competition), cIAP2 BIR2. In outline: as §1
Sequence of cIAP2-BIR2 (Q13489 158-242): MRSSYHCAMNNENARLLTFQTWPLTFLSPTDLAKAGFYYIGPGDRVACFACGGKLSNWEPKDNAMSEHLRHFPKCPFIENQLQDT
The target in another assay is XIAP-BIR3 (Homo sapiens (Human), UniProt P98170). The assay is described as follows: BIR binding assay (FRET competition), XIAP BIR3. The note with it: for XIAP BIR3 vs BIR2 separation window: fold separation (FS) for XIAP. In outline: as §1
Sequence of XIAP-BIR3 (P98170 241-356): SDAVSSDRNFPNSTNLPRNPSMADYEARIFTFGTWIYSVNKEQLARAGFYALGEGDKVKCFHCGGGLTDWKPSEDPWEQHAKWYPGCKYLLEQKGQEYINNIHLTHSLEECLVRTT
The next assay addresses cIAP1-BIR2 (Homo sapiens (Human), UniProt Q13490). As to the kind of experiment: BIR binding assay (FRET competition), cIAP1 BIR2. In outline:
as §1

The target of a further assay is XIAP-BIR2 (Homo sapiens (Human), UniProt P98170). The assay is described as follows: BIR binding assay (FRET competition), XIAP BIR2. As to conditions: read-out: XIAP BIR2 (pIC50) (converted). In outline: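 Competitive TR-FRET used His-tagged XIAP-BIR2 (200 nM) and 200 nM AlexaFluor647-labelled AVPIAQKSE SMAC peptide in HEPES buffer pH 7.4 with CHAPS, glycerol and DTT, incubated 60 min before 30 min with 2 nM Eu-W1024. The 615/665 nm ratio from a 15-point, 3-fold series was fit with a four-parameter model for IC50/pIC50.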
Sequence of XIAP-BIR2 (P98170 124-240): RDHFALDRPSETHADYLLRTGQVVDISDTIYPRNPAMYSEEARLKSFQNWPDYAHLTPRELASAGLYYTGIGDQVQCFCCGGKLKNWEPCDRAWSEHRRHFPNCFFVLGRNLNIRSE

Read-outs that look alike come from different tables or passages of the source.

Sequence of cIAP1-BIR2 (Q13490 173-257): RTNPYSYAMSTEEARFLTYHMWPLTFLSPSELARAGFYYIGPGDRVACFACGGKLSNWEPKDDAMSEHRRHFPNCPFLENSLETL
Sequence of cIAP2-BIR3 (Q13489 238-349): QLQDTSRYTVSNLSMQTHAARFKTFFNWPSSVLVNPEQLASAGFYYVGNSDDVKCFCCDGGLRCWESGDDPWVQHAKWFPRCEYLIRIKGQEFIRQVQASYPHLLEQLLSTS
Sequence of cIAP1-BIR3 (Q13490 253-363): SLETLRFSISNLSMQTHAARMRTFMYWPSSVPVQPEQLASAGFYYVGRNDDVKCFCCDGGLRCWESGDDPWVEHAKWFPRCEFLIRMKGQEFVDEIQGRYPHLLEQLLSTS

`C[C@@H]1CN(CC(=O)N2CC(C)(C)c3[nH]c(=O)c(Cc4ccc(F)cc4)cc32)[C@@H](CN2CCC(CC(=O)N(C)Cc3ccc(CN(C)C(=O)CC4CCN(C[C@H]5CN[C@H](C)CN5CC(=O)N5CC(C)(C)c6[nH]c(=O)c(Cc7ccc(F)cc7)cc65)CC4)cc3)CC2)CN1` [Example 106, N,N′-(1,4-phenylenebis(methylene))bis(2-(1-(((2R,5R)-1-(2-(6-(4-fluorobenzyl)-3,3-dimethyl-5-oxo-2,3,4,5-tetrahydro-1H-pyrrolo[3,2-b]pyridin-1-yl)-2-oxoethyl)-5-methylpiperazin-2-yl)methyl)piperidin-4-yl)-N-methylacetamide)]: the IC50 on cIAP2-BIR3 is 1.38 to 7.94 nM; at cIAP1-BIR3, 1.38 to 7.94 nM; on cIAP2-BIR2, 1000 to 3160 nM; at XIAP-BIR3, 1.38 to 7.94 nM; at cIAP1-BIR2, 1000 to 3160 nM; on XIAP-BIR2 (FRET competition binding), 10000 to 51300 nM. Also, the “cIAP2 BIR3 vs BIR2 separation window” value at cIAP2-BIR3 is on record as “+++ (10,000>FS>1,000)”. Besides, at cIAP1-BIR3, the “cIAP1 BIR3 vs BIR2 separation window” value was “+++ (10,000>FS>1,000)”. For the same compound, the EC50 in assay [1] was 12.6 to 63.1 nM. The “XIAP BIR3 vs BIR2 separation window” value at XIAP-BIR3 is on record as “++++ (FS>10,000)”.

For the compound `C[C@@H]1CN(CC(=O)N2CC(C)(C)c3[nH]c(=O)c(Oc4ccc(F)cc4)cc32)[C@@H](CN2CCO[C@H](C(=O)NCc3ccc(CNC(=O)[C@@H]4CN(C[C@H]5CN[C@H](C)CN5CC(=O)N5CC(C)(C)c6[nH]c(=O)c(Oc7ccc(F)cc7)cc65)CCO4)cc3)C2)CN1` [Compound 181, (2S,2′S)-N,N′-(1,4-phenylenebis(methylene)) bis(4-(((2R,5R)-1-(2-(6-(4-fluorophenoxy)-3,3-dimethyl-5-oxo-2,3,4,5-tetrahydro-1H-pyrrolo[3,2-b]pyridin-1-yl)-2-oxoethyl)-5-methylpiperazin-2-yl)methyl)morpholine-2-carboxamide)], the IC50 on cIAP2-BIR3 was 1.38 to 7.94 nM; at cIAP1-BIR3 it was 1.38 to 7.94 nM; at cIAP2-BIR2, 3160 to 10000 nM; on XIAP-BIR3, 1.38 to 7.94 nM; at cIAP1-BIR2, 3160 to 10000 nM; at XIAP-BIR2 (FRET competition) it was 10000 to 51300 nM. Also, the “cIAP2 BIR3 vs BIR2 separation window” value at cIAP2-BIR3 is recorded as “++++ (FS>10,000)”. Besides, the “cIAP1 BIR3 vs BIR2 separation window” value on cIAP1-BIR3 is recorded as “++++ (FS>10,000)”. The EC50 in assay [1] was 63.1 to 316 nM. Besides, at XIAP-BIR3, the “XIAP BIR3 vs BIR2 separation window” value is “++++ (FS>10,000)”.

Regarding `C[C@@H]1CN(CC(=O)N2CC(C)(C)c3[nH]c(=O)c(Cc4ccc(F)cc4)cc32)[C@@H](CN2CCO[C@@H](COc3cccc(OC[C@H]4CN(C[C@H]5CN[C@H](C)CN5CC(=O)N5CC(C)(C)c6[nH]c(=O)c(Cc7ccc(F)cc7)cc65)CCO4)c3)C2)CN1` [Example 112, 1,1′-(2,2′-((3R,3′R,6R,6′R)-(((2R,2′R)-((1,3-phenylenebis(oxy))bis(methylene))bis(morpholine-2,4-diyl))bis(methylene))bis(3-methylpiperazine-6,1-diyl))bis(acetyl))bis(6-(4-fluorobenzyl)-3,3-dimethyl-1,2,3,4-tetrahydro-5H-pyrrolo[3,2-b]pyridin-5-one)], the IC50 was 7.94 to 15.8 nM at cIAP2-BIR3; 7.94 to 15.8 nM at cIAP1-BIR3; 1000 to 3160 nM at cIAP2-BIR2; 15.8 to 31.6 nM at XIAP-BIR3; 3160 to 10000 nM on cIAP1-BIR2; 10000 to 51300 nM at XIAP-BIR2 (FRET competition binding). On cIAP2-BIR3, the “cIAP2 BIR3 vs BIR2 separation window” value is given as “+++ (10,000>FS>1,000)”. In addition, at cIAP1-BIR3, the “cIAP1 BIR3 vs BIR2 separation window” value is given as “+++ (10,000>FS>1,000)”. Further, the EC50 in assay [1] is 12.6 to 63.1 nM. The “XIAP BIR3 vs BIR2 separation window” value on XIAP-BIR3 is recorded as “+++ (10,000>FS>1,000)”.

Take `C[C@@H]1CN(CC(=O)N2CC(C)(C)c3[nH]c(=O)c(Cc4ccc(F)cc4)cc32)[C@@H](CN2CCN(CCc3cn(CCCC(=O)N4CCN(C[C@H]5CN[C@H](C)CN5CC(=O)N5CC(C)(C)c6[nH]c(=O)c(Cc7ccc(F)cc7)cc65)[C@H](C)C4)nn3)C[C@H]2C)CN1` [Compound 157]: the IC50 at cIAP2-BIR3 was 7.94 to 15.8 nM; at cIAP1-BIR3 it was 7.94 to 15.8 nM; at cIAP2-BIR2 it was 22.4 to 1000 nM; at XIAP-BIR3 it was 15.8 to 31.6 nM; at cIAP1-BIR2 it was 1000 to 3160 nM; on XIAP-BIR2 (FRET competition), 10000 to 51300 nM. In addition, the “cIAP2 BIR3 vs BIR2 separation window” value at cIAP2-BIR3 is “++ (1,000>FS>100)”. Besides, on cIAP1-BIR3, the “cIAP1 BIR3 vs BIR2 separation window” value is recorded as “++ (1,000>FS>100)”. Moreover, the EC50 in assay [1] was 63.1 to 316 nM. Moreover, at XIAP-BIR3, the “XIAP BIR3 vs BIR2 separation window” value was “++++ (FS>10,000)”.

In the case of `C[C@@H]1CN(CC(=O)N2CC(C)(C)c3[nH]c(=O)c(Cc4c(F)cc(F)cc4F)cc32)[C@@H](CN2CCO[C@H](C(=O)NCc3ccc(CNC(=O)[C@@H]4CN(C[C@H]5CN[C@H](C)CN5CC(=O)N5CC(C)(C)c6[nH]c(=O)c(Cc7c(F)cc(F)cc7F)cc65)CCO4)cc3)C2)CN1` [Compound 167, (2S,2′S)-N,N′-(1,4-phenylenebis(methylene)) bis(4-(((2R,5R)-1-(2-(3,3-dimethyl-5-oxo-6-(2,4,6-trifluorobenzyl)-2,3,4,5-tetrahydro-1H-pyrrolo[3,2-b]pyridin-1-yl)-2-oxoethyl)-5-methylpiperazin-2-yl)methyl)morpholine-2-carboxamide)], the IC50 at cIAP2-BIR3 is 1.38 to 7.94 nM; at cIAP1-BIR3, 7.94 to 15.8 nM; at cIAP2-BIR2, 22.4 to 1000 nM; at XIAP-BIR3 it was 15.8 to 31.6 nM; on cIAP1-BIR2 it was 22.4 to 1000 nM; at XIAP-BIR2 (FRET competition), 10000 to 51300 nM. In addition, the “cIAP2 BIR3 vs BIR2 separation window” value at cIAP2-BIR3 is on record as “++ (1,000>FS>100)”. Also, on cIAP1-BIR3, the “cIAP1 BIR3 vs BIR2 separation window” value is listed as “++ (1,000>FS>100)”. For the same compound, in assay [1], the EC50 was 0.49 to 12.6 nM. Further, the “XIAP BIR3 vs BIR2 separation window” value at XIAP-BIR3 is “++++ (FS>10,000)”.

With `C[C@@H]1CN(CC(=O)N2CC(C)(C)c3[nH]c(=O)c(Cc4ccc(F)cc4)cc32)[C@@H](CN2CCO[C@H](COc3ccc(OC[C@@H]4CN(C[C@H]5CN[C@H](C)CN5CC(=O)N5CC(C)(C)c6[nH]c(=O)c(Cc7ccc(F)cc7)cc65)CCO4)cc3)C2)CN1` [Example 70, 1,1′-(2,2′-((3R,3′R,6R,6′R)-(((2S,2'S)-((1,4-phenylenebis(oxy))bis(methylene))bis(morpholine-2,4-diyl))bis(methylene))bis(3-methylpiperazine-6,1-diyl))bis(acetyl))bis(6-(4-fluorobenzyl)-3,3-dimethyl-1,2,3,4-tetrahydro-5H-pyrrolo[3,2-b]pyridin-5-one)], the IC50 at cIAP2-BIR3 is 7.94 to 15.8 nM; at cIAP1-BIR3, 15.8 to 31.6 nM; on cIAP2-BIR2 it was 1000 to 3160 nM; at XIAP-BIR3, 15.8 to 31.6 nM; on cIAP1-BIR2 it was 1000 to 3160 nM; at XIAP-BIR2 (FRET competition binding), 10000 to 51300 nM. Moreover, the “cIAP2 BIR3 vs BIR2 separation window” value at cIAP2-BIR3 is reported as “+++ (10,000>FS>1,000)”. For the same compound, on cIAP1-BIR3, the “cIAP1 BIR3 vs BIR2 separation window” value is on record as “+++ (10,000>FS>1,000)”. Further, the EC50 in assay [1] is 0.49 to 12.6 nM. Besides, the “XIAP BIR3 vs BIR2 separation window” value on XIAP-BIR3 is “++++ (FS>10,000)”.

For `C[C@@H]1CN(CC(=O)N2CC(C)(C)c3[nH]c(=O)c(Cc4ccc(F)cc4)cc32)[C@@H](CN2CCO[C@H](C(=O)N3CCCN(C(=O)[C@@H]4CN(C[C@H]5CN[C@H](C)CN5CC(=O)N5CC(C)(C)c6[nH]c(=O)c(Cc7ccc(F)cc7)cc65)CCO4)CC3)C2)CN1` [Example 131, 1,1′-(2,2′-((3R,3′R,6R,6′R)-(((2S,2'S)-(1,4-diazepane-1,4-dicarbonyl)bis(morpholine-2,4-diyl))bis(methylene))bis(3-methylpiperazine-6,1-diyl))bis(acetyl))bis(6-(4-fluorobenzyl)-3,3-dimethyl-1,2,3,4-tetrahydro-5H-pyrrolo[3,2-b]pyridin-5-one)], the IC50 on cIAP2-BIR3 was 7.94 to 15.8 nM; on cIAP1-BIR3 it was 31.6 to 501 nM; on cIAP2-BIR2 it was 1000 to 3160 nM; at XIAP-BIR3, 15.8 to 31.6 nM; on cIAP1-BIR2, 1000 to 3160 nM; at XIAP-BIR2 (FRET competition binding), 10000 to 51300 nM. Moreover, the “cIAP2 BIR3 vs BIR2 separation window” value on cIAP2-BIR3 is recorded as “+++ (10,000>FS>1,000)”. At cIAP1-BIR3, the “cIAP1 BIR3 vs BIR2 separation window” value is listed as “++ (1,000>FS>100)”. Moreover, the EC50 in assay [1] was 12.6 to 63.1 nM. On XIAP-BIR3, the “XIAP BIR3 vs BIR2 separation window” value is listed as “++++ (FS>10,000)”.
